# Results from patent publication US20120177693A1, “DEEP LUNG PULMONARY DELIVERY OF TREPROSTINIL” (Aradigm Corporation, priority 2008, published 2012).
# Test: Venous plasma pharmacokinetics of inhaled treprostinil via AERx Essence or Nebu-Tec Optineb, 14 healthy male subjects
# Details: for Dose-normalised AUCI / Dose-normalised AUCT / Dose-normalised Cmax: dose-normalised for the calculated dose to lung (μg); for AUCINF_obs_D (dose normalised AUCI) / AUClast_D (dose normalised AUCT) / Cmax_D (dose normalised Cmax): normalised for dose to lung
# Experimental: On each of two dosing days, eligible subjects underwent dosing with ^99mTc-labeled treprostinil sodium using either the AERx Essence System or the Nebu-Tec Optineb nebulizer. Following their initial study dose, subjects underwent a washout period of approximately 48 hours before completing a second (crossover) study dose.
# Immediately following each study dose, subjects underwent gamma scintigraphy and multiple samplings of venous blood to characterize treprostinil lung deposition and plasma pharmacokinetics.
# To evaluate treprostinil plasma pharmacokinetics, 16 venous blood samples were drawn into 7.5 ml Potassium EDTA monovette tubes following each study dose (i.e., Essence and Optineb). Sampling occurred approximately 1 hour prior to dosing and at +2, +3, +5, +7, +10, +15, +20, +30, +60, +90, +120, +180, +240, +300, and +360 minutes after the start of each study dose. Thus, a total of 32 blood samples (˜250 mL) were collected for pharmacokinetic assessment over the two dosing days. Immediately upon sampling the sample was identified with a bar coded label bearing details of study number, subject number, sampling time point, sample type and a unique 9 digit identification number. The sample was separated by centrifugation at 1500×g and 4° C. for 10 minutes. Two equal aliquots of plasma/serum were transferred to 2 polypropylene tubes labelled identically to the original blood sample and stored at approximately −20° C. pending analysis. The time at which samples were taken, received into the separating room and placed in the freezer was recorded in the study documentation.
# The pharmacokinetic parameters Cmax, AUCT and AUCI were normalised for the dose delivered to the lung, as determined from the scintigraphy data (Tables 14.2.1.5 & 14.2.1.6).
# [1] = dose-normalised for the calculated dose to lung
# [2] = via Nebu-Tec, Geometric LS means
smiles,measurement,setting,value
"CCCCC[C@H](O)CC[C@@H]1[C@H]2Cc3cccc(OCC(=O)[O-])c3C[C@H]2C[C@H]1O.[Na+] [treprostinil, (1R,2R,3aS,9aS)-[[2,3,3a,4,9,9a-Hexahydro-2-hydroxyl-1-[(3S)-3-hydroxyoctyl]-1H-benz[f]inden-5-yl]oxy]acetic acid monosodium salt]","Tmax, Median Diff. AERx vs Nebu-Tec",Wilcoxon Matched Pairs Test,11.5 min
same,"Dose-normalised AUCI, AERx/Nebu-Tec Ratio of geometric LS means",[1],101.79%
same,"Dose-normalised AUCT, AERx/Nebu-Tec Ratio of geometric LS means",[1],103.24%
same,"Dose-normalised Cmax, AERx/Nebu-Tec Ratio of geometric LS means","dose-normalised for the calculated dose to lung, monosodium salt",61.51%
same,Tmax,"human, plasma, inhaled, Tmax, one subject in the nebulizer arm with delayed Tmax",~20 min
same,AUC,"male, human, plasma, inhaled, 19.58 μg",0.53 ng·h/mL
same,AUC(0-inf),"male, human, plasma, inhaled, 19.58 μg, AUCINF—obs, via Optineb, GM",0.533 ng·h/mL
same,AUC(0-inf),"male, human, plasma, inhaled, 19.58 μg, AUCINF—obs, via Optineb, Median",0.546 ng·h/mL
same,AUC(0-t),"male, human, plasma, inhaled, 19.58 μg, AUCT, via Nebu-Tec, Geometric LS means",0.51 ng·h/mL
same,AUC(0-t),"male, human, plasma, inhaled, 19.58 μg, AUClast, via Optineb, GM",0.51 ng·h/mL
same,AUC(0-t),"male, human, plasma, inhaled, 19.58 μg, AUClast, via Optineb, Median",0.531 ng·h/mL
same,Cmax,"male, human, plasma, inhaled, 19.58 μg, Cmax, via Nebu-Tec, Geometric LS means",0.71 ng/mL
same,Cmax,"male, human, plasma, inhaled, 19.58 μg, Cmax, via Optineb, GM (geometric mean)",0.707 ng/mL
same,Cmax,"male, human, plasma, inhaled, 19.58 μg, Cmax, via Optineb, Median",0.696 ng/mL
same,half-life,"male, human, plasma, inhaled, 19.58 μg, T1/2, via Optineb, GM",38.5 min
same,half-life,"male, human, plasma, inhaled, 19.58 μg, T1/2, via Optineb, Median",37.3 min
same,Tmax,"male, human, plasma, inhaled, 19.58 μg, Tmax, via Nebu-Tec, Median",8.5 min
same,Tmax,"male, human, plasma, inhaled, 19.58 μg, Tmax, via Optineb, Median",8.52 min
same,AUC(0-inf),"male, human, plasma, inhaled, 26 μg, AUCINF—obs, via AERx, GM",0.731 ng·h/mL
same,AUC(0-inf),"male, human, plasma, inhaled, 26 μg, AUCINF—obs, via AERx, Median",0.767 ng·h/mL
same,AUC(0-t),"male, human, plasma, inhaled, 26 μg, AUClast, via AERx, GM",0.709 ng·h/mL
same,AUC(0-t),"male, human, plasma, inhaled, 26 μg, AUClast, via AERx, Median",0.749 ng·h/mL
same,Cmax,"male, human, plasma, inhaled, 26 μg, Cmax, via AERx, GM (geometric mean)",0.586 ng/mL
same,Cmax,"male, human, plasma, inhaled, 26 μg, Cmax, via AERx, Median",0.548 ng/mL
same,half-life,"male, human, plasma, inhaled, 26 μg, T1/2, via AERx, GM",46.3 min
same,half-life,"male, human, plasma, inhaled, 26 μg, T1/2, via AERx, Median",43.6 min
same,Tmax,"male, human, plasma, inhaled, 26 μg, Tmax, via AERx, Median",25 min
same,AUC,"male, human, plasma, inhaled, 26.07 μg",0.73 ng·h/mL
same,AUC(0-t),"male, human, plasma, inhaled, 26.07 μg, AUCT, via AERx, Geometric LS means",0.71 ng·h/mL
same,Cmax,"male, human, plasma, inhaled, 26.07 μg, Cmax, via AERx, Geometric LS means",0.59 ng/mL
same,Tmax,"male, human, plasma, inhaled, 26.07 μg, Tmax, via AERx, Median",25 min
same,Vd/F,"male, human, plasma, inhaled, 2 AERx strips",44 L
same,AUC(0-inf),"male, human, plasma, inhaled, 2 AERx strips, AUCINF—obs (AUCI), via AERx, Mean",0.762 ng·h/mL
same,AUC(0-t),"male, human, plasma, inhaled, 2 AERx strips, AUClast (AUCT), via AERx, Mean",0.742 ng·h/mL
same,Cmax,"male, human, plasma, inhaled, 2 AERx strips, Cmax, via AERx, Mean",0.64 ng/mL
same,half-life,"male, human, plasma, inhaled, 2 AERx strips, T1/2 (elimination half life), via AERx, Mean",52.2 min
same,Tmax,"male, human, plasma, inhaled, 2 AERx strips, Tmax, via AERx, Mean",20.6 min
same,Vd/F,"male, human, plasma, inhaled, 6 puffs",36 L
same,AUC(0-inf),"male, human, plasma, inhaled, 6 puffs, AUCINF—obs (AUCI), via Optineb, Mean",0.553 ng·h/mL
same,AUC(0-t),"male, human, plasma, inhaled, 6 puffs, AUClast (AUCT), via Optineb, Mean",0.531 ng·h/mL
same,Cmax,"male, human, plasma, inhaled, 6 puffs, Cmax, via Optineb, Mean",0.762 ng/mL
same,half-life,"male, human, plasma, inhaled, 6 puffs, T1/2 (elimination half life), via Optineb, Mean",40.1 min
same,Tmax,"male, human, plasma, inhaled, 6 puffs, Tmax, via Optineb, Mean",8.94 min
same,Tmax,"male, human, plasma, inhaled, TMAX, via AERx Essence System, mean",21 min
same,Tmax,"male, human, plasma, inhaled, TMAX, via nebulizer (Nebu-Tec OPTINEB), mean",9 min
same,"AUCI, AERx/Nebu-Tec Ratio of geometric LS means",not dose adjusted,137.15%
same,"AUCT, AERx/Nebu-Tec Ratio of geometric LS means",not dose adjusted,139.11%
same,"Cmax, AERx/Nebu-Tec Ratio of geometric LS means",not dose adjusted,82.88%
same,Cmax_D,"via AERx, GM",0.023 ng/mL/µg
same,Vz_F_obs,"via AERx, GM",38614.996 mL
same,Dose-normalised AUCI,"via AERx, Geometric LS means",0.029 ng·h/mL
same,Dose-normalised AUCT,"via AERx, Geometric LS means",0.028 ng·h/mL
same,Dose-normalised Cmax,"via AERx, Geometric LS means",0.023 ng/mL
same,AUCINF—obs,"via AERx, Max",1.205 ng·h/mL
same,AUClast,"via AERx, Max",1.196 ng·h/mL
same,Cmax,"via AERx, Max",1.347 ng/mL
same,Cmax_D,"via AERx, Max",0.044 ng/mL/µg
same,T1/2,"via AERx, Max",163.9 min
same,Tmax,"via AERx, Max",30 min
same,Vz_F_obs,"via AERx, Max",133550.416 mL
same,AUCINF_obs_D (dose normalised AUCI),"via AERx, Mean",0.029 ng·h/mL/µg
same,AUClast_D (dose normalised AUCT),"via AERx, Mean",0.028 ng·h/mL/µg
same,Cmax_D (dose normalised Cmax),"via AERx, Mean",0.024 ng/mL/µg
same,Cmax_D,"via AERx, Median",0.022 ng/mL/µg
same,Vz_F_obs,"via AERx, Median",34319.392 mL
same,AUCINF—obs,"via AERx, Min",0.407 ng·h/mL
same,AUClast,"via AERx, Min",0.375 ng·h/mL
same,Cmax,"via AERx, Min",0.299 ng/mL
same,Cmax_D,"via AERx, Min",0.016 ng/mL/µg
same,T1/2,"via AERx, Min",28.3 min
same,Tmax,"via AERx, Min",7.02 min
same,Vz_F_obs,"via AERx, Min",21692.705 mL
same,Dose-normalised AUCI,[2],0.028 ng·h/mL
same,Dose-normalised AUCT,[2],0.027 ng·h/mL
same,Dose-normalised Cmax,[2],0.037 ng/mL
same,Cmax_D,"via Optineb, GM",0.037 ng/mL/µg
same,Vz_F_obs,"via Optineb, GM",32721.114 mL
same,AUCINF—obs,"via Optineb, Max",0.852 ng·h/mL
same,AUClast,"via Optineb, Max",0.816 ng·h/mL
same,Cmax,"via Optineb, Max",1.559 ng/mL
same,Cmax_D,"via Optineb, Max",0.069 ng/mL/µg
same,T1/2,"via Optineb, Max",66.42 min
same,Tmax,"via Optineb, Max",20 min
same,Vz_F_obs,"via Optineb, Max",92051.057 mL
same,AUCINF_obs_D (dose normalised AUCI),"via Optineb, Mean",0.030 ng·h/mL/µg
same,AUClast_D (dose normalised AUCT),"via Optineb, Mean",0.029 ng·h/mL/µg
same,Cmax_D (dose normalised Cmax),"via Optineb, Mean",0.041 ng/mL/µg
same,Cmax_D,"via Optineb, Median",0.037 ng/mL/µg
same,Vz_F_obs,"via Optineb, Median",32525.036 mL
same,AUCINF—obs,"via Optineb, Min",0.360 ng·h/mL
same,AUClast,"via Optineb, Min",0.315 ng·h/mL
same,Cmax,"via Optineb, Min",0.312 ng/mL
same,Cmax_D,"via Optineb, Min",0.017 ng/mL/µg
same,T1/2,"via Optineb, Min",25.6 min
same,Tmax,"via Optineb, Min",4.98 min
same,Vz_F_obs,"via Optineb, Min",16866.083 mL
